Experimental data: patent US8435978B2, “Substituted sulfonamide compounds” (Gruenenthal GmbH, priority 2006, dated 2013)
Values belong to the molecule of their own block, whether it stands above or below them.

What was measured:
[1] = molecular target: T1, human B1R receptor (Homo sapiens, UniProt P46663); experiment: Functional study on the bradykinin receptor 1 (B1R), FLIPR Ca2+ assay, hB1R cells; type: cell-based; settings: agonist Lys-Des-Arg9-bradykinin 0.5 nM, % inhibition compared with the maximum achievable inhibition; for inhibition at 10 µM: CHO-K1, test substance 10 μM, read-out: B1R Antagonism, human [10 μM] % Inhibition; for B1R Antagonism, human [10 μM] % Inhibition: test substance 10 μM, hB1R CHO K1 cells
T1 construct: host or cells: CHO K1 cells (Chinese hamster ovary), stably transfected
T1 sequence (P46663 1-353): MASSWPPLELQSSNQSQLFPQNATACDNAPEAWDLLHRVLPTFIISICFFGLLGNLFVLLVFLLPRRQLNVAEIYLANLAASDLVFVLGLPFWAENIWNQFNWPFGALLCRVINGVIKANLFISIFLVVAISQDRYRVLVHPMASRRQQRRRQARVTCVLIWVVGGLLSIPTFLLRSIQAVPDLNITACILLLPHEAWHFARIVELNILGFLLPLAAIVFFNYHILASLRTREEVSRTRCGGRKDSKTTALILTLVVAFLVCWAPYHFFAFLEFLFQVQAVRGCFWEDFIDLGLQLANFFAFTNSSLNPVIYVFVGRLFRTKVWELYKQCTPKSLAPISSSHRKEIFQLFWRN
In short: (§1)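 Cells were dye-loaded 60 min at 37 °C, equilibrated 20 min at room temperature, then given 10 μM compound. Ten minutes later the species-matched agonist was added (0.5 nM Lys-Des-Arg9-bradykinin, human; 100 nM Des-Arg9-bradykinin, rat) and Ca2+ influx suppression expressed as % of maximum inhibition.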

[2] = molecular target: T2, B1R receptor of the rat (Rattus norvegicus, UniProt P97583); experiment: Functional study on the bradykinin receptor 1 (B1R), FLIPR Ca2+ assay, rB1R cells; type: cell-based; settings: agonist Des-Arg9-bradykinin 100 nM, % inhibition compared with the maximum achievable inhibition; for inhibition at 10 µM: CHO-K1, test substance 10 μM, read-out: B1R Antagonism, rat [10 μM] % Inhibition; for B1R Antagonism, rat [10 μM] % Inhibition: test substance 10 μM, rB1R CHO K1 cells
T2 construct: host or cells: CHO K1 cells (Chinese hamster ovary), stably transfected
T2 sequence (P97583 1-337): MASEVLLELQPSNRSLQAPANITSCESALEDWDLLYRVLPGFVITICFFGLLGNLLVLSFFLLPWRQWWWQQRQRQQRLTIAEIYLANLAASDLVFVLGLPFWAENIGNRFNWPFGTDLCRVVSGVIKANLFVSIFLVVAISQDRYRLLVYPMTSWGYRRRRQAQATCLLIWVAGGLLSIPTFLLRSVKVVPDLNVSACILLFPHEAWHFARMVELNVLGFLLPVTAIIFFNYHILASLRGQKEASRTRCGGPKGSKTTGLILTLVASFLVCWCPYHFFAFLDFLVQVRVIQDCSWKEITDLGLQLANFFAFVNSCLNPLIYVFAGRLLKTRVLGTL
In short: as §1

inhibition at 10 µM [1]: 99.2%
inhibition at 10 µM [2]: 97.5%
Molecule: COc1cc(C)c(S(=O)(=O)N2CCCCC2COCC(=O)NCC2CCCN(Cc3ccccc3)C2)c(C)c1 (stereo not shown) [Example 415, N-((1-benzylpiperidin-3-yl)methyl)-2-((1-(4-methoxy-2,6-dimethylphenylsulfonyl)piperidin-2-yl)methoxy)acetamide]

inhibition at 10 µM [1]: 73.5%
inhibition at 10 µM [2]: 101%
Molecule: COc1cc(C)c(S(=O)(=O)N2CCCCC2COCC(=O)N2CCN(c3ncccc3C#N)CC2)c(C)c1 (stereo not shown) [Example 513, 2-(4-(2-((1-(4-methoxy-2,6-dimethylphenylsulfonyl)piperidin-2-yl)methoxy)acetyl)piperazin-1-yl)nicotinonitrile]

B1R Antagonism, human [10 μM] % Inhibition [1]: 101.62%
B1R Antagonism, rat [10 μM] % Inhibition [2]: 100.66%
Molecule: COc1cc(C)c(S(=O)(=O)N2CCCCC2COCC(=O)N2CCC(N3CCN(C)CC3)CC2)c(C)c1 (stereo not shown) [Example 524, 2-((1-(4-methoxy-2,6-dimethylphenylsulfonyl)piperidin-2-yl)methoxy)-1-(4-(4-methylpiperazin-1-yl)piperidin-1-yl)ethanone]

inhibition at 10 µM [1]: 92.3%
inhibition at 10 µM [2]: 102%
Molecule: COc1cc(C)c(S(=O)(=O)N2CCCC2COCC(=O)N2CCN(c3ncc(C(F)(F)F)cc3Cl)CC2)c(C)c1 (stereo not shown) [Example 469, 1-(4-(3-chloro-5-(trifluoromethyl)pyridin-2-yl)piperazin-1-yl)-2-((1-(4-methoxy-2,6-dimethylphenylsulfonyl)pyrrolidin-2-yl)methoxy)ethanone]

B1R Antagonism, human [10 μM] % Inhibition [1]: 65.25%
B1R Antagonism, rat [10 μM] % Inhibition [2]: 103.41%
Molecule: 1-(4-(3-chloro-5-(trifluoromethyl)pyridin-2-yl)piperazin-1-yl)-2-((1-(2,6-dichlorophenylsulfonyl)piperidin-2-yl)methoxy)ethanone [Example 485]

inhibition at 10 µM [1]: 44%
inhibition at 10 µM [2]: 104%
Molecule: COc1cc(C)c(S(=O)(=O)N2CCCC2COCC(=O)N2CCN(Cc3c(C)cc(C)cc3C)CC2)c(C)c1 (stereo not shown) [Example 351, 2-((1-(4-methoxy-2,6-dimethylphenylsulfonyl)pyrrolidin-2-yl)methoxy)-1-(4-(2,4,6-trimethylbenzyl)piperazin-1-yl)ethanone]

inhibition at 10 µM [1]: 62%
inhibition at 10 µM [2]: 102%
Molecule: COc1cc(C)c(S(=O)(=O)N2CCCCC2COCC(=O)N2CCCCCC2c2ccc(N(C)C)cc2)c(C)c1 (stereo not shown) [Example 400, 1-(2-(4-(dimethylamino)phenyl)azepan-1-yl)-2-((1-(4-methoxy-2,6-dimethylphenylsulfonyl)piperidin-2-yl)methoxy)ethanone]

inhibition at 10 µM [1]: 102%
inhibition at 10 µM [2]: 100%
Molecule: COc1cc(C)c(S(=O)(=O)N2Cc3ccccc3CC2COCC(=O)N2CCN(C3CCN(C)CC3)CC2)c(C)c1C (stereo not shown) [Example 562, 2-((2-(4-methoxy-2,3,6-trimethylphenylsulfonyl)-1,2,3,4-tetrahydroisoquinolin-3-yl)methoxy)-1-(4-(1-methylpiperidin-4-yl)piperazin-1-yl)ethanone]

inhibition at 10 µM [1]: 101%
inhibition at 10 µM [2]: 103%
Molecule: O=C(COCC1CCCCN1S(=O)(=O)c1c(Cl)cccc1Cl)N1CCN(Cc2ccccc2)CC1 (stereo not shown) [Example 480, 1-(4-benzylpiperazin-1-yl)-2-((1-(2,6-dichlorophenylsulfonyl)piperidin-2-yl)methoxy)ethanone]

inhibition at 10 µM [1]: 98.7%
inhibition at 10 µM [2]: 99.8%
Molecule: COc1cc(C)c(S(=O)(=O)N2CCCCC2COCC(=O)N2CCCN(C)CC2)c(C)c1 (stereo not shown) [Example 375, 2-((1-(4-methoxy-2,6-dimethylphenylsulfonyl)piperidin-2-yl)methoxy)-1-(4-methyl-1,4-diazepan-1-yl)ethanone]

More lines, now with the values behind:

Molecule: Cc1cc(C)c(S(=O)(=O)N2CCCCC2COCC(=O)N2CCN(CC3CCN(C)CC3)CC2)c(C)c1 (stereo not shown) [Example 232, 2-((1-(mesitylsulfonyl)piperidin-2-yl)methoxy)-1-(4-((1-methylpiperidin-4-yl)methyl)piperazin-1-yl)ethanone]
inhibition at 10 µM [1]: 102%
inhibition at 10 µM [2]: 90%

Molecule: COc1cc(C)c(S(=O)(=O)N2CCCCC2COCC(=O)N2CCN(Cc3cnc(N(C)c4ccc(F)cc4)nc3)CC2)c(C)c1 (stereo not shown) [Example 214, 1-(4-((2-((4-fluorophenyl)(methyl)amino)pyrimidin-5-yl)methyl)piperazin-1-yl)-2-((1-(4-methoxy-2,6-dimethylphenylsulfonyl)piperidin-2-yl)methoxy)ethanone]
inhibition at 10 µM [1]: 101%
inhibition at 10 µM [2]: 102%

Molecule: COc1cc(C)c(S(=O)(=O)N2CCCCC2COCC(=O)NC(CN2CCCC2)c2ccccc2)c(C)c1 (stereo not shown) [Example 262, 2-((1-(4-methoxy-2,6-dimethylphenylsulfonyl)piperidin-2-yl)methoxy)-N-(1-phenyl-2-(pyrrolidin-1-yl)ethyl)acetamide]
inhibition at 10 µM [1]: 81.8%
inhibition at 10 µM [2]: 99.7%

Molecule: COc1cccc(N2CCN(C(=O)COCC3CCCCN3S(=O)(=O)c3c(C)cc(C)cc3C)CC2)c1 (stereo not shown) [Example 77, 1-[4-(3-methoxy-phenyl)-piperazin-1-yl]-2-[1-(2,4,6-trimethyl-phenylsulfonyl)-piperidin-2-ylmethoxy]-ethanone]
inhibition at 10 µM [1]: 48%
inhibition at 10 µM [2]: 105%

Molecule: COc1cc(C)c(S(=O)(=O)N2CCCCC2COCC(=O)N2CCN(C(C)C)CC2)c(C)c1 (stereo not shown) [Example 291, 1-(4-isopropylpiperazin-1-yl)-2-((1-(4-methoxy-2,6-dimethylphenylsulfonyl)piperidin-2-yl)methoxy)ethanone]
inhibition at 10 µM [1]: 104%
inhibition at 10 µM [2]: 93%

Molecule: Cc1cc(C)c(S(=O)(=O)N2CCCCC2COCC(=O)N2CCC(N3CCCCC3)CC2)c(C)c1 (stereo not shown) [Example 225, 1-(1,4′-bipiperidin-1′-yl)-2-((1-(mesitylsulfonyl)piperidin-2-yl)methoxy)ethanone]
inhibition at 10 µM [1]: 104%
inhibition at 10 µM [2]: 84.1%

Molecule: Cc1cc(C)c(S(=O)(=O)N2CCCCC2COCC(=O)Nc2ccc(-n3ccnc3C)cc2)c(C)c1 (stereo not shown) [Example 87, N-[4-(2-methyl-imidazol-1-yl)-phenyl]-2-[1-(2,4,6-trimethyl-phenylsulfonyl)-piperidin-2-ylmethoxy]-acetamide]
inhibition at 10 µM [1]: 42.7%
inhibition at 10 µM [2]: 44.4%

Molecule: CN1CCC(N2CCN(C(=O)COCC3CCCCN3S(=O)(=O)c3c(Cl)cc(C(F)(F)F)cc3Cl)CC2)CC1 (stereo not shown) [Example 108, 2-((1-(2,6-dichloro-4-(trifluoromethyl)phenylsulfonyl)piperidin-2-yl)methoxy)-1-(4-(1-methylpiperidin-4-yl)piperazin-1-yl)ethanone]
inhibition at 10 µM [1]: 102%
inhibition at 10 µM [2]: 102%

Molecule: COc1cc(C)c(S(=O)(=O)N2CCCC2COCC(=O)N2CCN(CCn3c(C)ccc3C)CC2)c(C)c1 (stereo not shown) [Example 269, 1-(4-(2-(2,5-dimethyl-1H-pyrrol-1-yl)ethyl)piperazin-1-yl)-2-((1-(4-methoxy-2,6-dimethylphenylsulfonyl)pyrrolidin-2-yl)methoxy)ethanone]
inhibition at 10 µM [1]: 104%
inhibition at 10 µM [2]: 99%

Molecule: COc1cc(C)c(S(=O)(=O)N2CCCC2COCC(=O)N(C)[C@H]2CCN(Cc3ccccc3)C2)c(C)c1 (stereo partly drawn) [Example 303, N—((S)-1-benzylpyrrolidin-3-yl)-2-((1-(4-methoxy-2,6-dimethylphenylsulfonyl)pyrrolidin-2-yl)methoxy)-N-methylacetamide]
inhibition at 10 µM [1]: 106%
inhibition at 10 µM [2]: 100%

Molecule: COc1cc(C)c(S(=O)(=O)N2CCCC2COCC(=O)NCc2ccc(CN3CCOCC3)cc2)c(C)c1 (stereo not shown) [Example 55, 2-[1-(4-methoxy-2,6-dimethyl-phenylsulfonyl)-pyrrolidin-2-ylmethoxy]-N-(4-morpholin-4-ylmethyl-benzyl)-acetamide]
inhibition at 10 µM [1]: 63.2%
inhibition at 10 µM [2]: 88.8%

Molecule: CN1CCC(N2CCN(C(=O)COCC3CCCCN3S(=O)(=O)c3ccc(Cl)c(Cl)c3)CC2)CC1 (stereo not shown) [Example 32, 2-[1-(3,4-dichloro-phenylsulfonyl)-piperidin-2-ylmethoxy]-1-[4-(1-methyl-piperidin-4-yl)-piperazin-1-yl]-ethanone]
inhibition at 10 µM [1]: 83.3%
inhibition at 10 µM [2]: 63.3%

Molecule: COc1cc(C)c(S(=O)(=O)N2CCCCC2COCC(=O)NCCC2CCN(c3ccncc3)CC2)c(C)c1 (stereo not shown) [Example 143, 2-((1-(4-methoxy-2,6-dimethylphenylsulfonyl)piperidin-2-yl)methoxy)-N-(2-(1-(pyridin-4-yl)piperidin-4-yl)ethyl)acetamide]
inhibition at 10 µM [1]: 99.9%
inhibition at 10 µM [2]: 99.3%
